# Earlier results in patent publication US20090118503A1, “FAAH INHIBITORS” (priority 2007, published 2009).
# Tests used:
# MCF-7 cells = conditions: up to 100 μM
Structure (SMILES),cell viability (as assessed by trypan blue) (MCF-7 cells),ability to inhibit prostaglandin synthesis (prostaglandin synthesis)
CCCCC/C=C\C/C=C\C/C=C\C/C=C\CCCC(=O)NCCO [anandamide],No significant decrease in cell viability,
"Cc1c(CC(=O)O)c2cc(O)ccc2n1C(=O)c1ccc(Cl)cc1 [desmethyl metabolite, (1-(4-chlorobenzoyl)-5-hydroxy-2-methyl-1H-indol-3-yl]acetic acid]",,some ability to inhibit prostaglandin synthesis
